Row | melting point [°C] | SMILES
1 | 145 to 146 | Cc1nc(N2CCc3cc(Cl)cc(Cl)c32)c2c(C)nn(Cc3ccccc3)c2n1 [Example 414]
2 | 136 to 138 | COCC[C@@H](COC)n1nnc2c(N3CCc4cc(Br)cc(Br)c43)nc(C)cc21 [Example 1, (S)-4-(5,7-Dibromo-2,3-dihydro-1H-indol-1-yl)-1-[1-(methoxymethyl)-3-methoxypropyl]-6-methyl-1H-1,2,3-triazolo[4,5-c]pyridine]
